The results in this text go back to US11738099B2, “Molecular probes and methods of use” (CASE WESTERN RESERVE UNIVERSITY, priority 2014, dated 2023).

“Also recorded” adds a separate entry of the source. Where a SMILES comes first, the peptide text is derived from it. The star is where a group is joined. X1 = O=C(O)CN1CCN(CC(=O)O)CCN(CC(O)Cn2cc(CCCC(=O)*)nn2)CCN(CC(=O)O)CC1; PEG2 = NCCOCCOCCC(=O)O

Series [1] can be described thus: Relaxivity at 1.5T in water, 37° C. The format is physicochemical. As to the method:
Relaxivity is an important parameter for an MR contrast agent. It reflects how the relaxation rate of the surrounding water proton changes as a function of concentration, and it is directly associated with the agent's contrast enhancing capability during imaging. The relaxivity of the 4 contrast agents was tested at 37° C. in water and compared to Gd(HP-DO3A), Gd-DOTA and ZD2-Gd(HP-DO3A) (FIG. 26). […] Compared to Gd(HP-DO3A), Gd-DOTA, the size increase of the targeted contrast agents due to the peptides and PEG spacer could result in an increase of τR,^[42, 43] thus leading to higher relaxivities.

Series [2] in a line: In vivo transmetallation and urinary excretion. Also noted: species or system mouse. Particulars: 0.1 mmol-Gd/kg. As to the method:
Balb/c mice (Charles River Laboratories, Wilmington, Mass., USA) were randomly divided into groups of ZD2-Gd(HP-DO3A) and ProHance (n=5) and placed in the metabolism cages, 48 hours prior to injection. […] Urine samples were collected at 12 h pre-injection, and then 8, 24, 48, and 72 h post-injection from the metabolic box. The collected urine samples were centrifuged at 4,000 rpm for 15 min. The concentration of Gd(III), Zn(II), Cu(H), and Ca(II) in the supernatant of the urine samples was determined by ICP-OES after appropriate dilutions.

A short description of series [3]: Relaxivity measurement at 3T. The format is physicochemical. As to the method: The design of the EDB-FN targeted MRI agent was based on a modular system that forms small molecular contrast agent in conjugation with l-ZD2. Compound 1 in FIG. 7A was prepared by adding a short PEG linker, followed by reacting with 5-hexynoic acid, resulting in an alkyne group for conjugation through click chemistry. The final product from reaction of compound 1 and 2 was purified with HPLC and characterized with Maldi-Tof spectrum.

Another series deals with 4T1 metastatic tumors. Put plainly: MRI of breast cancer metastatic tumor model. The format is in vivo, mouse. As for the experimental part: In order to construct a metastatic tumor model, 0.2×10^6 4T1 tumor cells undergone 5 days of TGFβ induction were injected through left ventricle of heart, resulting in the spread of tumor cells primarily in brain, lung, liver, lymph node, adrenal gland, chest, and bone marrow. Bioluminescent images of the mice at two weeks were used to monitor the growth of tumors. To assess the targeting capacity of l-ZD2-Cy5, brain and lung were harvested from the mice three hours after 10 nmol l-ZD2-Cy5 were injected. […] Normal brain and lung harvested from normal mice injected with l-ZD2-Cy5 were used as negative controls. Examination of bigger metastatic tumors in lymph nodes and adrenal gland, as shown in FIG. 8B further backed up the targeting efficiency of l-ZD2-Cy5.
Breast cancer metastatic tumor model was imaged at two weeks in order to validate the properties of l-ZD2-Gd(HP-DO3A) in detecting breast cancer micrometastases. In FIG. 9A, a mouse developed with metastatic tumors in lymph nodes, adrenal glands, and chest was imaged in MRI after l-ZD2-Gd(HP-DO3A) injection, in conjugation with BLI validation of tumor positions.

For series [4], the system named is PC3 prostate tumor xenografts. The series is described as follows: In vivo T1-weighted MRI at 7T, PC3 tumors. Also noted: species or system mouse. As to the method:
All MRI experiments were performed on a horizontal 7T Bruker scanner (Bruker Biospin Co., Billerica, Mass.). Imaging experiments were performed when the tumor size reached 5-8 mm in diameter. ZD2-Gd(HP-DO3A) was administered intravenously at the dose of 0.1 mmol/kg after acquiring pre-contrast images. Post-contrast images were obtained at 10 min interval up to 30 min. The axial slices of mouse at the tumor location were acquired using T1-weighted spin echo sequence with the following parameters: field of view (FOV): 3 cm; slice thickness: 1.2 mm; interslice distance: 1.2 mm; TR: 500 ms, TE: 8.1 ms; flip angle: 90°; average: 2; matrix size: 128×128. Contrast-to-noise ratio (CNR) at each time point was calculated by subtraction of the average signal intensity in the tumor and muscle, divided by the standard deviation of image noise. ProHance® (gadoteridol) was used as a control in the imaging experiments.

For series [5], the system named is LNCaP prostate tumor xenografts. Put plainly: T1-weighted MRI at 1 Tesla, LNCaP tumors (Example 3). The format is in vivo, mouse. Particulars: 0.1 mmol/kg i.v., up to 30 min. As to the method:
Male athymic nude mice were purchased from Case Comprehensive Cancer Center (Cleveland, Ohio, USA) and housed in the Animal Core Facility at Case Western Reserve University. All animal experiments were performed in accordance with the animal protocol approved by the CWRU Institutional Animal Care and Use Committee. Athymic nude male mice were subcutaneously injected with 100 μL cell suspension (4×10^7 cells/mL) in matrigel matrix (Corning Bioscience, Corning, N.Y.) to initiate tumors. Mice with tumors of 5-8 mm in diameter were used for imaging studies.
MR images of tumor bearing mice were acquired on an Aspect M3 small animal MRI scanner (1 Tesla). Mice were placed on a holder with the temperature maintained at 37° C., with isoflurane/oxygen mixture supplied to the mice through a nose cone. A thin catheter filled with PBS was connected to a tail vein of the mice. After mice were placed in the coil, a pilot scan was performed to adjust mice to the proper location in the coil. […] Images were exported into DICOM data, which were then processed and analyzed using Matlab (Natick, Mass., USA). The contrast to-noise ratio of tumors in the images were calculated as the difference between tumor mean intensity minus muscle mean intensity, divided by the noise.

`CC(C)[C@H](NC(=O)[C@@H](NC(=O)CCOCCOCCNC(=O)CCCc1cn(CC(O)CN2CCN(CC(=O)O)CCN(CC(=O)O)CCN(CC(=O)O)CC2)nn1)[C@@H](C)O)C(=O)N[C@@H](CCCNC(=N)N)C(=O)N[C@H](C(=O)N[C@@H](CO)C(=O)N[C@@H](C)C(=O)N[C@@H](CC(=O)O)C(=O)O)[C@@H](C)O` (some centres unmarked) [ZD2-Gd(HP-DO3A)] ({X1-PEG2}-TVRTSAD-OH) gave a r1 in series [1] of 5.4 mM⁻¹ s⁻¹. Besides, the “urine concentration of endogenous metal ions post-injection vs pre-injection” value in series [2] is reported as “without any significant increase”. For the same molecule, the dose excreted in series [2] (mouse, in vivo, iv, within 24 hours post-injection, read-out: injected dose excreted in urine) was more than 95%. In series [3], the “relaxivities (T1 and T2)” value is “relatively high relaxivities”. In the series on 4T1 metastatic tumors (metastatic tumors at two weeks), the “tumor enhancement in MRI” value is on record as “All five tumors indicated in BLI showed enhancement in MRI”. In addition, the “signal enhancement in tumor by CNR measurement” value in the series on 4T1 metastatic tumors (tumor vs liver, kidney, bladder, muscle) is reported as “significant higher signal enhancement”. Besides, the “signal enhancement in PC3 tumors” value in series [4] (0.1 mmol/kg i.v., up to 30 min, 7T) was “Strong signal enhancement”. Moreover, in series [4] (0.1 mmol/kg with 0.5 mmol/kg free ZD2 peptide), the “signal enhancement and CNR in PC3 tumors with co-injection of free ZD2 peptide” value is given as “significantly reduced”. Moreover, the “CNR in PC3 tumors” value is on record as 12-25 in series [4] (10-30 min post-injection) and 23.7±1.68 in series [4] (30 min (peak), n=5, SEM). The “increase of CNR in PC3 tumors” value is “over two-fold increase” in series [4] (10 min after injection) and “over five-fold increase” in series [4] (30 min). For the same molecule, the “contrast enhancement in other organs and normal tissues” value in series [4] (mouse, in vivo) is “did not produce significant contrast enhancement”. Also, the “signal enhancement in LNCaP tumors” value in series [5] is on record as “significantly lower signal enhancement; also recorded: did not produce significant contrast enhancement”.
